Test results as given in patent publication US8343912B2, “Antibiotic compositions for the treatment of gram negative infections” (priority 2008, dated 2013).
Marks after values point to notes of the source that are not given here. Numbered stars: 1 amine (or outer) side, 2 acyl side, 3 side chain; on linkers, the order of the positions; unused ones are H or OH. Bridge positions count the residues as written; N and C are the ends. Square brackets hold non-standard residues; d marks the D form. Peptide text beside a SMILES is read from it. * marks the point of attachment. Octanoyl(6-Me) = CCC(C)CCCCC(=O)*; NH(2-ClPh) = Clc1ccccc1N*; Dab = NCC[CH](N)C(=O)O; CO = O=C([*:1])[*:2]

Legend:
P. aeruginosa [1] = assay: MIC90, broth microdilution, panel of Gram negative clinical isolates; format: cell-based, Pseudomonas aeruginosa; conditions: 100 strains
Procedure: (§1) To evaluate the potency and spectrum of compounds of Formula (I), (i.e., Compounds designated 5 and 6), a study was conducted that put together a panel of 455 Gram negative strains, which included multi-drug resistant clinical isolates selected from various surveillance programs. Table 3A lists the strains that were included in the study and the activity of Compound 5, Compound 6, and colistin (polymyxin E, abbreviated PME). Strains with acquired resistance to colistin and/or carbapenems and/or broad spectrum cephalosporins were pre-selected and included in all organism groups evaluated.
(§2) MIC testing was performed according to Clinical and Laboratory Standards Institute (CLSI) M7-A7 (2006) broth microdilution methods. Unless otherwise indicated, MIC values are provided in units of micrograms per milliliter.
(§3) One day prior to testing, individual colonies were isolated by streaking onto rich, non-selective Tryptic Soy agar with 5% lysed sheeps blood (TSAB) with incubation at 35-37° C. for 18-24 hours.
(§4) Cultures were prepared by touching 3-5 colonies into 3 mL of Cation adjusted Mueller Hinton Broth (caMHB) in a 14 mL tube (CaMHB was prepared and sterilized according to manufacturer's specifications). Cultures were grown at 37° C. 200 rpm for approximately four hours prior to density adjustment for addition to the MIC assay.
(§5) OD600 of growing cultures was measured and adjusted to approximately 10^5 colony forming units per mL (CFU/mL) in caMHB for MIC inoculation (approximately OD600 0.001).
(§6) Diluted cultures were used to inoculate 50 μL per well in broth microdilution assays (final volume 100 μl per well; compounds were prepared in two-fold dilutions).
(§7) Plates were incubated 16-20 hrs at 37° C., with shaking at 200 rpm.
(§8) OD600 was determined for all wells. Growth was defined as OD600>0.1. MICs were defined as the lowest concentration producing no visible turbidity (OD600<0.1).

[2] = test system: Acinetobacter baumannii 1570; assay: MIC, broth microdilution; format: cell-based; conditions: for MIC against A. baumannii #1570: Table 8, range of repeated tests
Procedure: as §2, §3, §4, §5, §6, §7, §8
A. baumannii #1570 were grown in cation adjusted Mueller Hinton Broth (caMHB) (catalog #B12322; Fisher Scientific, Pittsburgh, Pa.) at 37° C. MIC testing was performed according to Clinical and Laboratory Standards Institute [CLSI, formerly National Committee for Clinical Laboratory Standards (NCCLS), Wayne, Pa.] guidelines for broth microdilution.
MIC testing was performed according to CLSI (formerly NCCLS) guidelines for broth microdilution.

Citrobacter spp. = assay: MIC90, broth microdilution, panel of Gram negative clinical isolates; format: cell-based; conditions: 20 strains; some strains multi-drug resistant
Procedure: as §1, §2, §3, §4, §5, §6, §7, §8

Enterobacter = assay: as above; format: cell-based; conditions: 20 strains; some strains multi-drug resistant
Procedure: as §1, §2, §3, §4, §5, §6, §7, §8

Acinetobacter spp = assay: as above; format: cell-based; conditions: 81 strains
Procedure: as §1, §2, §3, §4, §5, §6, §7, §8

A. baumannii #1570 = assay: Thigh infection in neutropenic mice; format: in vivo; conditions: for Log10 CFU/mL thigh homogenate ± SD: thighs at 24 h; for ED−3log10 (dose for 3 log10 reduction in bacterial count vs water): thigh infection, sc, Compound 5 value corrected for lot potency 711 μg/mg
Procedure: Infections were induced in neutropenic mice by […] the left thigh of each mouse. Compound 5, or a comparator drug, either polymyxin B, colistin or imipenem, were administered subcutaneously at 1 hour and 6 hours post-infection. Eighteen hours after the last treatment, mice were euthanized humanely; the infected thighs were removed, homogenized, serially diluted, and plated on agar. The bacterial burden was then quantitated by colony count. Compound 5, polymyxin B, colistin, and imipenem were evaluated for their ability to decrease the bacterial burden in the infected thighs compared with water-treated control mice.
All the test compounds were dissolved in sterile water for administration by subcutaneous (sc) injection. A series of dilutions of test compounds were prepared in sterile water.
Mice were made neutropenic by ip administration with 150 mg/kg cyclophosphamide on day-4, followed by a second ip dose of 100 mg/kg cyclophosphamide on day-1. A diluted exponential-phase growing culture of A. baumannii #1570 corresponding to 1×10^7 or 5×10^4 CFU respectively, in 0.2 mL of sterile saline, was injected into the left thigh of conscious mice on day 0. The actual concentration of bacteria in the inoculum was confirmed by determination of viable counts by dilution plating on tryptic soy agar plates. The number of CFU of bacteria was determined after an incubation of 16 hours at 37° C.
Groups of five mice were used for each dose of the test compounds and the vehicle. Each group received sc injections of test compounds or vehicle at 1 hour post-infection, and then at 6 hours post-infection for a total of 2 doses. In each study, there were three to five dose groups per test compound. Eighteen hours after the last injection, the mice were euthanized by asphyxiation with CO2. The left thighs were removed aseptically, homogenized in 4 mL of distilled water and dilution plated on tryptic soy agar plates to quantify bacterial CFU. The number of CFU of bacteria in thighs was determined after an incubation of 16 hours at 37° C. (the CFU per milliliter of homogenate).
The results were expressed as the geometric mean log10 CFU/mL±the standard deviation. The limit of detection was 10 CFU per mL of thigh homogenate. Thighs were considered sterile when no CFU were detected on the agar. The efficacy of the test compounds was assessed by comparing the number of log10 CFU/mL measured in the treated mice with control animals treated with vehicle (water). The efficacy of Compound 5 was also compared with the positive comparator antibiotics polymyxin B, colistin and imipenem-cilastatin.
Dose response curves of test compounds were generated for each isolate. Regression lines were generated using Microsoft Excel to calculate the dose administered twice daily (BID) predicted to produce a 3 log10 reduction in bacterial count as compared to the water-treated control group [ED−3 log 10 (mg/kg, sc, BID)].

P. aeruginosa [3] = assay: MIC, broth microdilution (Table 4); format: cell-based, Pseudomonas aeruginosa; conditions: for MIC P. aeruginosa: Table 4
Procedure: as §2, §3, §4, §5, §6, §7, §8

K. pneumonia = assay: MIC90, broth microdilution, panel of Gram negative clinical isolates; format: cell-based, Klebsiella pneumoniae; conditions: 81 strains; some strains multi-drug resistant
Procedure: as §1, §2, §3, §4, §5, §6, §7, §8

[4] = Pharmacokinetics/toxicokinetics in repeat-dose studies; format: in vivo, cynomolgus monkey
Procedure: Monkeys were dosed twice or three times daily for seven days with control article (0.9% Sodium Chloride for Injection, USP), 25000 IU/kg Compound 5, 37500 IU/kg Compound 5, or 37500 IU/kg PMB (Alpharma, lot number A1411079). Each administration was given via a targeted 30-minute intravenous infusion.
The following parameters were evaluated: daily clinical observations and qualitative food consumption, body weight (twice prior to the first dosing and at necropsy), urinalysis, hematology, coagulation, serum chemistry, toxicokinetics, gross pathology, organ weights, and histopathology of the kidneys and injection sites, and of the liver and sciatic nerves of control and high dose groups. Animals were evaluated through Study Day 7 and then terminated.
At higher dose levels, a slightly greater than dose-proportional response was evident in systemic exposure (AUC) and peak plasma concentrations (Cmax). The decrease in clearance at these higher doses may explain the non-linear systemic exposure to Compound 5.

[5] = 2.0 mg/kg BID sc, 1 and 6 h post-infection, water control 7.75

Row | SMILES | MIC90 P. aeruginosa (P. aeruginosa [1]) | MIC Acinetobacter baumannii 1570 ([2]; Table 3B) | MIC against A. baumannii #1570 [2] | MIC90 Citrobacter spp. (Citrobacter spp.) | MIC90 Enterobacter (Enterobacter) | MIC90 Acinetobacter spp (Acinetobacter spp) | Log10 CFU/mL thigh homogenate ± SD (A. baumannii #1570; [5]) | Log10 CFU/mL thigh homogenate ± SD (A. baumannii #1570; 4.0 mg/kg BID sc) | Log10 CFU/mL thigh homogenate ± SD (A. baumannii #1570; 8.0 mg/kg BID sc) | Log10 CFU/mL thigh homogenate ± SD (A. baumannii #1570; 12.0 mg/kg BID sc) | ED−3log10 (dose for 3 log10 reduction in bacterial count vs water) (A. baumannii #1570) | activity against bacteria compared with polymyxin B (P. aeruginosa [3]) | MIC P. aeruginosa (P. aeruginosa [3]) | MIC90 K. pneumonia (K. pneumonia) | volume of distribution ([4]; all species) | clearance (CL) ([4]; cynomolgus monkey, in vivo) | maximal plasma concentrations (Cmax) relative to Compound 5 ([4]; greater, Day 1, 37,500 IU/kg) | systemic exposure (AUC) relative to Compound 5 ([4]; greater, same activity-normalized dose) | systemic clearance relative to Compound 5 ([4]; less, Day 1) | volume of distribution relative to Compound 5 ([4]; lower)
1 | CC(C)C[C@@H]1NC(=O)[C@@H](Cc2ccccc2)NC(=O)[C@H](CCN)NC(=O)[C@@H](NC(=O)[C@H](CCN)NC(=O)[C@@H](NC(=O)[C@H](CCN)NC(=O)Nc2ccccc2Cl)[C@@H](C)O)CCNC(=O)[C@H]([C@@H](C)O)NC(=O)[C@H](CCN)NC(=O)[C@H](CCN)NC1=O [Compound 5, (S)-4-amino-N-((2S,3R)-1-((S)-4-amino-1-oxo-1-((3S,6S,9S,12S,15R,18S,21S)-6,9,18-tris(2-aminoethyl)-15-benzyl-3-((R)-1-hydroxyethyl)-12-isobutyl-2,5,8,11,14,17,20-heptaoxo-1,4,7,10,13,16,19-heptaazacyclotricosan-21-ylamino)butan-2-ylamino)-3-hydroxy-1-oxobutan-2-yl)-2-(3-(2-chlorophenyl)ureido)butanamide] ({NH(2-ClPh)-CO}-[Dab]T[Dab][Dab][Dab][dF]L[Dab][Dab]T; lactam 4-C) | 2 micrograms/mL | 4 micrograms/mL | 2-4 micrograms/ml | 0.5 micrograms/mL | >16 micrograms/mL | 4 micrograms/mL | 6.93 ± 0.56 Log10 CFU/mL | 6.64 ± 0.55 Log10 CFU/mL | 5.06 ± 0.80 Log10 CFU/mL | 3.97 ± 0.34 Log10 CFU/mL | 6.4^b mg/kg, BID | as active or more active | 2 micrograms/ml | 4 micrograms/mL | greater than blood volume | less than hepatic blood flow | – | – | – | –
2 | CCC(C)CCCCC(=O)NC(CCN)C(=O)NC(C(=O)NC(CCN)C(=O)NC1CCNC(=O)C(C(C)O)NC(=O)C(CCN)NC(=O)C(CCN)NC(=O)C(CC(C)C)NC(=O)C(Cc2ccccc2)NC(=O)C(CCN)NC1=O)C(C)O (centres unmarked) [Polymyxin B, polymyxin B, reference compound] ({Octanoyl(6-Me)}-[Dab]T[Dab][Dab][Dab]FL[Dab][Dab]T; lactam 4-C; configuration not given here) | 2 micrograms/mL | – | 1-2 micrograms/ml | 1 micrograms/mL | >64 micrograms/mL | 2 micrograms/mL | 6.04 ± 1.10 Log10 CFU/mL | 4.94 ± 1.03 Log10 CFU/mL | 4.07 ± 0.41 Log10 CFU/mL | 4.19 ± 0.59 Log10 CFU/mL | 4.8 mg/kg, BID | – | 2 micrograms/ml | 2 micrograms/mL | – | – | approximately 2 fold | 2.5 fold | 2 to 3 fold | approximately 2 fold
